Here are results for 29 molecules from patent US11407757B2, “Heterocycle compounds as Tyro3, Axl and MerTK (TAM) family of receptor tyrosine kinase inhibitors” (Development Center for Biotechnology, priority 2017, dated 2022).

Where only a bound is given, the exact number is not on record here.

The target of this test is Axl kinase (Homo sapiens (Human), UniProt P30530). In words: Axl kinase assay (AlphaScreen). The format is biochemical. The following applies: activity level class. In general terms: In Alpha technology, singlet oxygen from a donor bead excites a nearby acceptor bead.
Axl kinase, sequence (P30530 26-894): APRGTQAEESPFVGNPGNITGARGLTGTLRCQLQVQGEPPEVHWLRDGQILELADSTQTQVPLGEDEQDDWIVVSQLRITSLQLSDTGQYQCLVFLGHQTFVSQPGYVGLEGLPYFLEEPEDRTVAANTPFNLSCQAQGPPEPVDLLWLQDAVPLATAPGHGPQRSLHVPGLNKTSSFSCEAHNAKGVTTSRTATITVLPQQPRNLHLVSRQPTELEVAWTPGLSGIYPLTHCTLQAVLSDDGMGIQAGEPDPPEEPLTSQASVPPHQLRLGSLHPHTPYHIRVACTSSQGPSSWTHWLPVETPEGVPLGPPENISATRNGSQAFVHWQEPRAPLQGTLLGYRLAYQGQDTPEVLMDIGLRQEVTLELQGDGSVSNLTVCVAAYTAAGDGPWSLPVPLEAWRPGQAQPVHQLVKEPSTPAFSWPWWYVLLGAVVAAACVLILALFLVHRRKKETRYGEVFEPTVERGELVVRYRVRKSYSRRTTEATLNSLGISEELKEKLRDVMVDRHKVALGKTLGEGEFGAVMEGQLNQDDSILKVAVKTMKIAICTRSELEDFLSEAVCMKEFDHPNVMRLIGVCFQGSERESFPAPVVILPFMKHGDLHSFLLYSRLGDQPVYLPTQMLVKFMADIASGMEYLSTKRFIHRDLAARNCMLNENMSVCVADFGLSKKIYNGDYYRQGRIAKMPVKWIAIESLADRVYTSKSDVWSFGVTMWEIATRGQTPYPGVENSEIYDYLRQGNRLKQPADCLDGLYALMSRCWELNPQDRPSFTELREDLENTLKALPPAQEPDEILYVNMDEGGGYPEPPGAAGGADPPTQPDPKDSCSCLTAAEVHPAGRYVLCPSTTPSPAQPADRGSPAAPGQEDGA

Consider `COCCOc1nc(Nc2ccc(CN3CCN(C)CC3)cc2)nc2[nH]cc(-c3ccc(NS(=O)(=O)c4cc(F)ccc4F)cc3)c12` [Compound 1, 2,5-difluoro-N-(4-(4-(2-methoxyethoxy)-2-((4-((4-methylpiperazin-1-yl)methyl)phenyl)amino)-7H-pyrrolo[2,3-d]pyrimidin-5-yl)phenyl)benzene-sulfonamide], for which the IC50 (usually the point on the concentration scale where inhibition reaches its midpoint) was less than 30 nM.
The molecule `COCCOc1nc(Nc2ccc(CN3CCC(C)CC3)cc2)nc2[nH]cc(-c3ccc(NS(=O)(=O)c4cc(F)ccc4F)cc3)c12` [Compound 3, 2,5-difluoro-N-(4-(4-(2-methoxyethoxy)-2-((4-((4-methylpiperidin-1-yl)methyl)phenyl)amino)-7H-pyrrolo[2,3-d]pyrimidin-5-yl)phenyl)benzene-sulfonamide] yielded an IC50 of less than 30 nM.
The result for `COc1nc(Nc2ccc(CN3CCC(C)CC3)cc2)nc2[nH]cc(-c3ccc(NS(C)(=O)=O)cc3)c12` [Compound 4, N-(4-(4-methoxy-2-((4-((4-methylpiperidin-1-yl)methyl)phenyl)amino)-7H-pyrrolo[2,3-d]pyrimidin-5-yl)phenyl)methane-sulfonamide] reads less than 30 nM; that for `COc1nc(Nc2ccc(CN3CCC(C)CC3)cc2)nc2[nH]cc(-c3ccc(S(=O)(=O)N(C)C)cc3)c12` [Compound 5, 4-(4-methoxy-2-((4-((4-methylpiperidin-1-yl)methyl)phenyl)amino)-7H-pyrrolo[2,3-d]pyrimidin-5-yl)-N,N-dimethylbenzene-sulfonamide], less than 30 nM; that for `COCCOc1nc(Nc2ccc(CN3CCN(C)CC3)cc2)nc2[nH]cc(-c3ccc(OCc4cc(C)ccn4)cc3F)c12` [Compound 9, 5-(2-fluoro-4-((4-methylpyridin-2-yl)methoxy)phenyl)-4-(2-methoxyethoxy)-N-(4-((4-methylpiperazin-1-yl)methyl)phenyl)-7H-pyrrolo[2,3-d]pyrimidin-2-amine], less than 30 nM.
Regarding `COCCOc1nc(Nc2ccc(CN3CCN(C)CC3)cc2)nc2[nH]cc(-c3ccc(OCc4ncccc4C)cc3F)c12` [Compound 11, 5-(2-fluoro-4-((3-methylpyridin-2-yl)methoxy)phenyl)-4-(2-methoxyethoxy)-N-(4-((4-methylpiperazin-1-yl)methyl)phenyl)-7H-pyrrolo[2,3-d]pyrimidin-2-amine], the IC50 is less than 30 nM.
The result for `COc1nc(Nc2ccc(CN3CCN(C)CC3)cc2)nc2[nH]cc(-c3ccc(O)cc3)c12` [Compound 17, 4-(4-methoxy-2-((4-((4-methylpiperazin-1-yl)methyl)phenyl)amino)-7H-pyrrolo [2,3-d]pyrimidin-5-yl)phenol] reads less than 30 nM; that for `CCN1CCN(Cc2ccc(Nc3nc(OCCOC)c4c(-c5ccc(OCc6ccccn6)cc5F)c[nH]c4n3)cc2)CC1` [Compound 19, N-(4-((4-ethylpiperazin-1-yl)methyl)phenyl)-5-(2-fluoro-4-(pyridin-2-ylmethoxy)phenyl)-4-(2-methoxyethoxy)-7H-pyrrolo[2,3-d]pyrimidin-2-amine], less than 30 nM.
Under `COc1nc(Nc2ccc(CN3CCC(C)CC3)cc2)nc2[nH]cc(-c3ccc(O)cc3)c12` [Compound 28, 4-(4-methoxy-2-((4-((4-methylpiperidin-1-yl)methyl)phenyl)amino)-7H-pyrrolo[2,3-d]pyrimidin-5-yl)phenol] stands less than 30 nM; under `COCCOc1nc(Nc2ccc(CN3CCC(C)CC3)cc2)nc2[nH]cc(-c3ccc(OCc4ncccn4)cc3F)c12` [Compound 34, 5-(2-fluoro-4-(pyrimidin-2-ylmethoxy)phenyl)-4-(2-methoxyethoxy)-N-(4-((4-methylpiperidin-1-yl)methyl)phenyl)-7H-pyrrolo[2,3-d]pyrimidin-2-amine], less than 30 nM; under `COc1nc(Nc2ccc(CN3CCN(C)CC3)cc2)nc2[nH]cc(-c3ccc(F)cc3)c12` [Compound 38, 5-(4-fluorophenyl)-4-methoxy-N-(4-((4-methylpiperazin-1-yl)methyl)phenyl)-7H-pyrrolo[2,3-d]pyrimidin-2-amine], less than 30 nM.
`CCN1CCN(Cc2ccc(Nc3nc(OCCOC)c4c(-c5ccc(OCc6ncccn6)cc5F)c[nH]c4n3)cc2)CC1` [Compound 39, N-(4-((4-ethylpiperazin-1-yl)methyl)phenyl)-5-(2-fluoro-4-(pyrimidin-2-ylmethoxy)phenyl)-4-(2-methoxyethoxy)-7H-pyrrolo[2,3-d]pyrimidin-2-amine] registered an IC50 of less than 30 nM.
Under `CCN1CCN(Cc2ccc(Nc3nc(OC)c4c(-c5ccc(F)cc5F)c[nH]c4n3)cc2)CC1` [Compound 45, 5-(2,4-difluorophenyl)-N-(4-((4-ethylpiperazin-1-yl)methyl)phenyl)-4-methoxy-7H-pyrrolo [2,3-d]pyrimidin-2-amine] stands less than 30 nM.
Under `CCN1CCN(Cc2ccc(Nc3nc(OC)c4c(-c5ccc(O)cc5)c[nH]c4n3)cc2)CC1` [Compound 48, 4-(2-((4-((4-ethylpiperazin-1-yl)methyl)phenyl)amino)-4-methoxy-7H-pyrrolo[2,3-d]pyrimidin-5-yl)phenol] stands less than 30 nM; under `COCCOc1nc(Nc2ccc(CN3CCN(C)CC3)cc2)nc2[nH]cc(-c3ccc(F)c(Cl)c3)c12` [Compound 50, 5-(3-chloro-4-fluorophenyl)-4-(2-methoxyethoxy)-N-(4-((4-methylpiperazin-1-yl)methyl)phenyl)-7H-pyrrolo[2,3-d]pyrimidin-2-amine], less than 30 nM.
Under `CN1CCN(Cc2ccc(Nc3nc(OCC4CCCO4)c4c(-c5ccc(F)cc5F)c[nH]c4n3)cc2)CC1` (centres unmarked) [Compound 52, 5-(2,4-difluorophenyl)-N-(4-((4-methylpiperazin-1-yl)methyl)phenyl)-4-((tetrahydrofuran-2-yl)methoxy)-7H-pyrrolo[2,3-d] pyrimidin-2-amine] stands less than 30 nM; under `COCCOc1nc(Nc2ccc(CN3CCN(C)CC3)cc2)nc2[nH]cc(-c3ccc(F)cc3F)c12` [Compound 53, 5-(2,4-difluorophenyl)-4-(2-methoxyethoxy)-N-(4-((4-methylpiperazin-1-yl)methyl)phenyl)-7H-pyrrolo[2,3-d] pyrimidin-2-amine], less than 30 nM; under `CCNc1nc(Nc2ccc(CN3CCN(C)CC3)cc2)nc2[nH]cc(-c3ccc(F)cc3F)c12` [Compound 54, 5-(2,4-difluorophenyl)-N4-ethyl-N2-(4-((4-methylpiperazin-1-yl)methyl)phenyl)-7H-pyrrolo[2,3-d] pyrimidine-2,4-diamine], less than 30 nM.
For `CN1CCN(Cc2ccc(Nc3nc(OC4CCCC4)c4c(-c5ccc(F)cc5F)c[nH]c4n3)cc2)CC1` [Compound 55, 4-(cyclopentyloxy)-5-(2,4-difluorophenyl)-N-(4-((4-methylpiperazin-1-yl)methyl)phenyl)-7H-pyrrolo[2,3-d]pyrimidin-2-amine], the IC50 is less than 30 nM.
Under `CCOc1nc(Nc2ccc(CN3CCN(C)CC3)cc2)nc2[nH]cc(-c3ccc(F)cc3F)c12` [Compound 59, 5-(2,4-difluorophenyl)-4-ethoxy-N-(4-((4-methylpiperazin-1-yl)methyl)phenyl)-7H-pyrrolo[2,3-d] pyrimidin-2-amine] stands less than 30 nM; under `COCC(C)Oc1nc(Nc2ccc(CN3CCN(C)CC3)cc2)nc2[nH]cc(-c3ccc(F)cc3F)c12` (centres unmarked) [Compound 63, 5-(2,4-difluorophenyl)-4-((1-methoxypropan-2-yl)oxy)-N-(4-((4-methylpiperazin-1-yl)methyl)phenyl)-7H-pyrrolo[2,3-d]pyrimidin-2-amine], less than 30 nM.
Under `COCCOc1nc(Nc2ccc(CN3CCN(C)CC3)cc2)nc2[nH]cc(-c3ccc4nc(C)oc4c3)c12` [Compound 64, 4-(2-methoxyethoxy)-5-(2-methylbenzo[d]oxazol-6-yl)-N-(4-((4-methylpiperazin-1-yl)methyl)phenyl)-7H-pyrrolo[2,3-d] pyrimidin-2-amine] stands less than 30 nM.
With `COCCOc1nc(Nc2ccc(CN3CCN(C)CC3)cc2)nc2[nH]cc(-c3ccc(OCn4ccccc4=O)cc3F)c12` [Compound 68, 1-((3-fluoro-4-(4-(2-methoxyethoxy)-2-((4-((4-methylpiperazin-1-yl)methyl)phenyl)amino)-7H-pyrrolo[2,3-d]pyrimidin-5-yl)phenoxy)methyl) pyridin-2(1H)-one], the IC50 was less than 30 nM.
The result for `CC(C)Oc1nc(Nc2ccc(CN3CCN(C)CC3)cc2)nc2[nH]cc(-c3ccc(F)cc3F)c12` [Compound 69, 5-(2,4-difluorophenyl)-4-isopropoxy-N-(4-((4-methylpiperazin-1-yl)methyl)phenyl)-7H-pyrrolo[2,3-d]pyrimidin-2-amine] reads less than 30 nM.
In turn, `CN1CCN(Cc2ccc(Nc3nc(NC4CCOCC4)c4c(-c5ccc(F)cc5F)c[nH]c4n3)cc2)CC1` [Compound 75, 5-(2,4-difluorophenyl)-N2-(4-((4-methylpiperazin-1-yl)methyl)phenyl)-N4-(tetrahydro-2H-pyran-4-yl)-7H-pyrrolo[2,3-d]pyrimidine-2,4-diamine] came in with an IC50 of less than 30 nM.
In turn, `CN1CCN(Cc2ccc(Nc3nc(OCC4CCCO4)c4c(-c5ccc(F)c(Cl)c5)c[nH]c4n3)cc2)CC1` (centres unmarked) [Compound 77, 5-(3-chloro-4-fluorophenyl)-N-(4-((4-methylpiperazin-1-yl)methyl)phenyl)-4-((tetrahydrofuran-2-yl)methoxy)-7H-pyrrolo[2,3-d]pyrimidin-2-amine] showed an IC50 of less than 30 nM.
The result for `COCCOc1nc(Nc2ccc(CN3CCN(C)CC3)cc2)nc2[nH]cc(-c3ccc(S(=O)(=O)N(C)C)cc3)c12` [Compound 79, 4-(4-(2-methoxyethoxy)-2-((4-((4-methylpiperazin-1-yl)methyl)phenyl)amino)-7H-pyrrolo[2,3-d]pyrimidin-5-yl)-N,N-dimethylbenzene-sulfonamide] reads less than 30 nM.
The result for `COCCOc1nc(Nc2ccc(CN(C)C)cc2)nc2[nH]cc(-c3ccc(F)cc3F)c12` [Compound 80, 5-(2,4-difluorophenyl)-N-(4-((dimethylamino)methyl)phenyl)-4-(2-methoxyethoxy)-7H-pyrrolo[2,3-d]pyrimidin-2-amine] reads less than 30 nM; that for `COCCOc1nc(Nc2ccc(CN3CCN(C)CC3)cc2)nc2[nH]cc(-c3ccc(F)cc3)c12` [Compound 85, 5-(4-fluorophenyl)-4-(2-methoxyethoxy)-N-(4-((4-methylpiperazin-1-yl)methyl)phenyl)-7H-pyrrolo[2,3-d]pyrimidin-2-amine], less than 30 nM.
